≈ marks a conversion by molar mass, not a printed value. Where “and” joins values, the source holds several entries; their conditions need not be identical. Equal entries are not always repeated.
How the values were obtained:
[1] = design: method as in PMID 36457143, PMID 38716967, PMID 39402010; settings: cited from earlier work
I2286T mPIEZO1 = target: T1, I2286T mPIEZO1 (Mus musculus, UniProt E2JF22, I2286T); experiment: Outside-out patch recording with pressure pulses; type: cell-based; settings: 5 μM; for current (example trace): 75 mmHg pulses
T1 construct: expressed in transfected cells
Method: (§1) Ionic currents were recorded through outside-out patches from cells using standard patch-clamp techniques in voltage-clamp mode. Patch pipettes were fire-polished and had resistance of 4–7 MΩ when filled with pipette solution. Ionic solution of composition (mM) NaCl 140, HEPES 10 and EGTA 5 (titrated to pH 7.4 using NaOH) was used in both the pipette and bath. Recordings were at a constant holding potential of −80 mV. 200-ms pressure steps were applied to the patch pipette with an interval of 12 s using High Speed Pressure Clamp HSPC-1 System (ALA Scientific Instruments, USA). All recordings were made with an Axopatch-200B amplifier (Axon Instruments, Inc., USA) equipped with Digidata 1550B and pClamp (v10.6) software (Molecular Devices, USA) at room temperature (21 ± 2°C). Currents were filtered at 2–5 kHz and digitally sampled at 5–20 kHz.

G1994D mPIEZO1 [2] = target: T2, G1994D mPIEZO1 (Mus musculus, UniProt E2JF22, G1994D); experiment: Outside-out patch recording with pressure pulses; type: cell-based; settings: for Currents at given pressure / Pressure-response, individual cells (Figure 5f) / Mean (pressure-response, Figure 5f): G1994D + Yoda1; for Pressure-response, individual cells (Figure 5f): cell1-cell10; for Mean (pressure-response, Figure 5f): mean of cells 1-10;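 as to Mean (pressure-response, Figure 5f): peak current normalised to each patch's maximum peak current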;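 as to Pressure-response, individual cells (Figure 5f): peak current normalised to each patch's maximum peak current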
T2 construct: expressed in transfected cells
Method: as §1

R2351Q mPIEZO1 = target: T3, R2351Q mPIEZO1 (Mus musculus, UniProt E2JF22, R2351Q); experiment: Outside-out patch recording with pressure pulses; type: cell-based
T3 construct: expressed in transfected cells
Method: as §1

G1994D mPIEZO1 [3] = target: T2, G1994D mPIEZO1; experiment: Long substance exposure (20 min exposure) Ca2+ assay; type: cell-based
From the text: Supplement mmc2.xlsx, sheet "Figure 5e" | column: Mean normalise fluorescence

WT mPIEZO1 = target: T4, WT mPIEZO1 (Mus musculus, UniProt E2JF22); experiment: Long substance exposure and hypo-osmolality protocol Ca2+ assay; type: cell-based; settings: 10 μM, 20-min exposure, hypotonic assay
T4 construct: expressed in transfected cells
Method: For intracellular Ca^2+ assays, cells were plated at 80–90% confluence in 96-well plates 24 h prior to recordings (6–8 × 10^4 cells per well). […] Cells were washed with SBS and incubated at room temperature for 20 min prior to recordings. Equal volumes of 2x concentrated compounds were injected to test for acute channel activation. Pre-incubation with compounds occurred during the 20 min prior to recordings. To expose cell membranes to hypo-osmolality, an equal volume of hypotonic SBS (containing only 35 mM NaCl) was injected onto the cells. Measurements were made on a fluorescence plate reader (Flexstation III, Molecular Devices) at room temperature (21 ± 2°C). Fura-2 was excited at 340 nm and 380 nm and emitted light collected at 510 nm, with measurements shown as the change in fluorescence (F) ratio (ΔF340/380).
SI Figure S5: Hypo-osm ol al it y test in the Ca2+ assay, referred to in the main paper
(a) Typical 96-well plate mean ± s.e.m. data for changes in intracellular Ca2+ evoked by hypotonic (35 mM NaCl) or normotonic (135 mM NaCl) medium for WT- or Empty vector-transfected cells in increasing concentrations of Yoda1 as indicated and colour -coded on t he right (representative of n = 3-6 independent experiments). […]

[4] = Mouse plasma protein binding; type: in vitro ADME
Method: Aqueous solubility, mouse microsomal stability and mouse plasma protein binding assays were performed by Malvern Panalytical (UK) as previously described.[29]

T3 sequence (E2JF22 whole entry R2351Q): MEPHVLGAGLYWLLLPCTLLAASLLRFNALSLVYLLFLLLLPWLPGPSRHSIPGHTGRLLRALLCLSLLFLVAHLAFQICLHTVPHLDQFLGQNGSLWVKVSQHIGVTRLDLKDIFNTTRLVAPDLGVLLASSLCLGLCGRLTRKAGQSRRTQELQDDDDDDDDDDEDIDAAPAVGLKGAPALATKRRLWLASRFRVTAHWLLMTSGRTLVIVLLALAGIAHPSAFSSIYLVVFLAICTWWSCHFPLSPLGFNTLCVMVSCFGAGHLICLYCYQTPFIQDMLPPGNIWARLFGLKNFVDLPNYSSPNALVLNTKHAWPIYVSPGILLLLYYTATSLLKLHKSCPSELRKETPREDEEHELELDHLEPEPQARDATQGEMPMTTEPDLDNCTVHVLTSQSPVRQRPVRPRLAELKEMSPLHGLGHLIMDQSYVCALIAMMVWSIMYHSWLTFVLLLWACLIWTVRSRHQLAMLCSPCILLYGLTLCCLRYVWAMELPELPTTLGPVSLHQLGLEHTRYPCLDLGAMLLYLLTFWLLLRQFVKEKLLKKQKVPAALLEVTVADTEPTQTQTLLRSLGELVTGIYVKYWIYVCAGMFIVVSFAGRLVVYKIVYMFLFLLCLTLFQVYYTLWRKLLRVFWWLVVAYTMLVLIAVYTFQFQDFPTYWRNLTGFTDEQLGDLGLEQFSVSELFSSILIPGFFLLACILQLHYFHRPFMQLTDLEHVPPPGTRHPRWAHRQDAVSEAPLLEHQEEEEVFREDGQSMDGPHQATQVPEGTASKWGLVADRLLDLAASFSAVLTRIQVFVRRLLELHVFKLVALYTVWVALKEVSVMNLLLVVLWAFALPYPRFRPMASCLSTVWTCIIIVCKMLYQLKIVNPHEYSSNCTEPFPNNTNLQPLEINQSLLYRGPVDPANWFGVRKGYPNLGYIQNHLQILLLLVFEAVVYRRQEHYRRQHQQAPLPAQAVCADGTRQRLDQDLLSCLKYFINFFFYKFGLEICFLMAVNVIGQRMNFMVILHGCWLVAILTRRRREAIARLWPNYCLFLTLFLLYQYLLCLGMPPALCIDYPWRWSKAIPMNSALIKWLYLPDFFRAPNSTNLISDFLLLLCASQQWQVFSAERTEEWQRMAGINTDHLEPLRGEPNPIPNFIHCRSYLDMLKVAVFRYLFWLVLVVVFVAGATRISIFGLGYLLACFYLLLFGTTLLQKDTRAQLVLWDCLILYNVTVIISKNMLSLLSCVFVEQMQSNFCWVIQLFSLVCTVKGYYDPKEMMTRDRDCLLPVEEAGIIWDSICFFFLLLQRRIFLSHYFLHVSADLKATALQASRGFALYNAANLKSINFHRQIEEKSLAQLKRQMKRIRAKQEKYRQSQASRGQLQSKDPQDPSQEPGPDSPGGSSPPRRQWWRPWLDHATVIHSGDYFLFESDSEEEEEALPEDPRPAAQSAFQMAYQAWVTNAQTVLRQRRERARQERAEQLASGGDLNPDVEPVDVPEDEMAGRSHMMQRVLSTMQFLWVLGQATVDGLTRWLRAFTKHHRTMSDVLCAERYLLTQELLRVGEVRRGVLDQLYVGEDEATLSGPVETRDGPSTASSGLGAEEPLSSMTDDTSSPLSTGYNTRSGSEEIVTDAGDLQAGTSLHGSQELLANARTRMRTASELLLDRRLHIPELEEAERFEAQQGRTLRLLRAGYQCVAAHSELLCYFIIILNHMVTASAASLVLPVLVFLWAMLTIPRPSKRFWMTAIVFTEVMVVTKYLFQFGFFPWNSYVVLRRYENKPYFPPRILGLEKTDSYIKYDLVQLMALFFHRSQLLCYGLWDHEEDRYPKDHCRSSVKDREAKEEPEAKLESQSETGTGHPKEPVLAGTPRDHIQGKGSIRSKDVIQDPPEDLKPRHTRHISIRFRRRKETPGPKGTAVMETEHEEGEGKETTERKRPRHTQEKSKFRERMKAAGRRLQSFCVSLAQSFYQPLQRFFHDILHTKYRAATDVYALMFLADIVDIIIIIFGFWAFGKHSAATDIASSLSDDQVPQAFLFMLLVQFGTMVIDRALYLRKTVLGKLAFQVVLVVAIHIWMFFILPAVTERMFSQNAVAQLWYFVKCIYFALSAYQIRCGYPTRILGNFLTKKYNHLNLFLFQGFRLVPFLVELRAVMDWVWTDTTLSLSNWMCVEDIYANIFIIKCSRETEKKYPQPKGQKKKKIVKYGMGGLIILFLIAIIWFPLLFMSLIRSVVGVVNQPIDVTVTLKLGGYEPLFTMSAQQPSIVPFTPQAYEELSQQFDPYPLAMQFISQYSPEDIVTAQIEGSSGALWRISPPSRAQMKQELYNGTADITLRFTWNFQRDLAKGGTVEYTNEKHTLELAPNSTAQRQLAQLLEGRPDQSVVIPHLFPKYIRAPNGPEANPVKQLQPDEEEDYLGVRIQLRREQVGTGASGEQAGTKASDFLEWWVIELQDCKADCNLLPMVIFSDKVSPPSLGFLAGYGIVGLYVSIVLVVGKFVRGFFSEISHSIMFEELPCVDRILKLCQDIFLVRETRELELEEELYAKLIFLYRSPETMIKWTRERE
T2 sequence (E2JF22 whole entry G1994D): as the sequence (E2JF22 whole entry R2351Q) above, with G1994D, Q2351R counted along it
T1 sequence (E2JF22 whole entry I2286T): as the sequence (E2JF22 whole entry R2351Q) above, with I2286T, Q2351R counted along it
T4 sequence (E2JF22 whole entry): as the sequence (E2JF22 whole entry R2351Q) above, with Q2351R counted along it

Clc1cccc(Cl)c1CSc1nnc(-c2cnccn2)s1 [Yoda1]
aqueous solubility limit [1]: ~2 µM (≈ 0.711 µg/mL) | mechanical activation in the presence of the compound (I2286T mPIEZO1; 75 mmHg pressure pulses): pressure-evoked current now occurred | current (example trace) (I2286T mPIEZO1; time 30.5 ms): -0.41 pA | current (example trace) (I2286T mPIEZO1; time 30.5002 ms): -0.2269 pA | current (example trace) (I2286T mPIEZO1; time 30.5004 ms): -0.5932 pA | maximum amplitude of current evoked by the pressure pulse, Mean (I2286T mPIEZO1; 75 mmHg, -80 mV, n = 7): -80.8694 pA | Currents at given pressure (G1994D mPIEZO1 [2]; 0 mmHg, time 200.1 ms): -1.831 pA | Currents at given pressure (G1994D mPIEZO1 [2]; 0 mmHg, time 200.15 ms): 0.2743 pA | Currents at given pressure (G1994D mPIEZO1 [2]; 0 mmHg, time 200.2 ms): -1.526 pA | Currents at given pressure (G1994D mPIEZO1 [2]; 15 mmHg, time 200.1 ms): 1.03 pA | Currents at given pressure (G1994D mPIEZO1 [2]; 15 mmHg, time 200.15 ms): -0.5571 pA | Currents at given pressure (G1994D mPIEZO1 [2]; 15 mmHg, time 200.2 ms): -0.1298 pA | Currents at given pressure (G1994D mPIEZO1 [2]; 30 mmHg, time 200.1 ms): -11.9666 pA | Currents at given pressure (G1994D mPIEZO1 [2]; 30 mmHg, time 200.15 ms): -9.769 pA | Currents at given pressure (G1994D mPIEZO1 [2]; 30 mmHg, time 200.2 ms): -5.161 pA | Currents at given pressure (G1994D mPIEZO1 [2]; 45 mmHg, time 200.1 ms): -2.0839 pA | Currents at given pressure (G1994D mPIEZO1 [2]; 45 mmHg, time 200.15 ms): -0.6801 pA | Currents at given pressure (G1994D mPIEZO1 [2]; 45 mmHg, time 200.2 ms): -0.497 pA | Currents at given pressure (G1994D mPIEZO1 [2]; 60 mmHg, time 200.1 ms): 1.1543 pA | Currents at given pressure (G1994D mPIEZO1 [2]; 60 mmHg, time 200.15 ms): -0.9209 pA | Currents at given pressure (G1994D mPIEZO1 [2]; 60 mmHg, time 200.2 ms): -0.8599 pA | Currents at given pressure (G1994D mPIEZO1 [2]; 75 mmHg, time 200.1 ms): -0.6364 pA | Currents at given pressure (G1994D mPIEZO1 [2]; 75 mmHg, time 200.15 ms): 0.6148 pA | Currents at given pressure (G1994D mPIEZO1 [2]; 75 mmHg, time 200.2 ms): 0.06549 pA | Currents at given pressure (G1994D mPIEZO1 [2]; 90 mmHg, time 200.1 ms): -1.92 pA | Currents at given pressure (G1994D mPIEZO1 [2]; 90 mmHg, time 200.15 ms): -2.409 pA | Currents at given pressure (G1994D mPIEZO1 [2]; 90 mmHg, time 200.2 ms): -0.1504 pA | Currents at given pressure (G1994D mPIEZO1 [2]; 105 mmHg, time 200.1 ms): -0.4419 pA | Currents at given pressure (G1994D mPIEZO1 [2]; 105 mmHg, time 200.15 ms): -1.449 pA | Currents at given pressure (G1994D mPIEZO1 [2]; 105 mmHg, time 200.2 ms): 0.2905 pA | Pressure-response, individual cells (Figure 5f) (G1994D mPIEZO1 [2]; pressure 0 mmHg): 1.59E-17 and -8.38E-17 and 0 (4×) and -2.96E-17 and -2.69E-17 and -3.91E-17 and 3.74E-17 | Mean (pressure-response, Figure 5f) (G1994D mPIEZO1 [2]; pressure 0 mmHg): -1.26E-17 | Pressure-response, individual cells (Figure 5f) (G1994D mPIEZO1 [2]; pressure 15 mmHg): 0.08197 and 0.01125 and 0.01265 and 0.01555 and 0.01655 and 0.00717 and 0.01084 and 0.05939 and 0.00309 and 0.1064 | Mean (pressure-response, Figure 5f) (G1994D mPIEZO1 [2]; pressure 15 mmHg): 0.03249 | Pressure-response, individual cells (Figure 5f) (G1994D mPIEZO1 [2]; pressure 30 mmHg): 0.03806 and -0.00981 and 0.03807 and 0.05062 and 0.03544 and 0.00903 and 0.00593 and 0.02358 and 0.08822 and 0.1193 | Mean (pressure-response, Figure 5f) (G1994D mPIEZO1 [2]; pressure 30 mmHg): 0.03984 | pressure for 50% activation (P50), Boltzmann mid-point (G1994D mPIEZO1 [2]; in 5 μM Yoda1, -80 mV): 64.0 mmHg | mechanical activation in the presence of the compound (R2351Q mPIEZO1; 5 μM, 75 mmHg pressure pulses): robust mechanical activation of the variant channels | currents at given condition, individual cells (cell1-cell7) (R2351Q mPIEZO1; R2351Q, Yoda1, Figure 4e): -87.925 pA and -24.5178 pA and -36.1129 pA and -20.7822 pA and -20.109 pA and -65.4339 pA and -114.364 pA | currents at given condition, Mean (R2351Q mPIEZO1; R2351Q, Yoda1, mean of 7 cells, Figure 4e): -52.7493 pA | Mean normalise fluorescence (Figure 5e) (G1994D mPIEZO1 [3]; Yoda1 concentration 0.03 µM): 0.2099 | Mean normalise fluorescence (Figure 5e) (G1994D mPIEZO1 [3]; Yoda1 concentration 0.1 µM): 0.1039 | Mean normalise fluorescence (Figure 5e) (G1994D mPIEZO1 [3]; Yoda1 concentration 0.3 µM): 0.5452 | Mean normalise fluorescence (Figure 5e) (G1994D mPIEZO1 [3]; Yoda1 concentration 1 µM): 1.026 | Mean normalise fluorescence (Figure 5e) (G1994D mPIEZO1 [3]; Yoda1 concentration 3 µM): 1 | Mean normalise fluorescence (Figure 5e) (G1994D mPIEZO1 [3]; Yoda1 concentration 10 µM): 1.103

O=C(O)c1ccc(-c2cnc(SCc3c(Cl)cccc3Cl)s2)cc1 [Yoda2b, 4-(2-([(2,6-Dichlorophenyl)methyl]sulfanyl)-1,3-thiazol-5-yl)benzoic acid]
more effective than Yoda1 under the hypotonic condition (WT mPIEZO1): about 25% | unbound to mouse plasma proteins [4]: 0.4%

Source: publication PMC12337661, “PIEZO1 mechanical insensitivity in generalized lymphatic dysplasia with the potential for pharmacological rescue” (iScience, 2025)
